Results: US12077503B2, “Substituted cyclic amides and their use as herbicides” (FMC CORPORATION, priority 2015, dated 2024)

Key:
Format in all cases: in vivo
[1] = test system: barnyardgrass (Echinochloa crus-galli); experiment: Test A preemergence; conditions: Echinochloa crus-galli, pre-emergence, 240 h, 0 to 100 scale where 0 is no effect and 100 is complete control, read-out: Barnyardgrass plant response rating; for pest or weed control at 31 g/ha: 31 g ai/ha, Preemergence; for pest or weed control at 125 g/ha: 125 g ai/ha, preemergence, visual injury rating, approximately 10 d
In short: (§1)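 Seeded soil received test chemicals as a preemergence directed spray, and seedlings at one to two leaves, 2–10 cm tall, received them postemergence, in a non-phytotoxic, surfactant-containing solvent mixture. Pots were held in a greenhouse for approximately 10 d, then rated for injury from 0, no effect, to 100, complete control.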

[2] = test system: giant foxtail (Setaria faberii); experiment: Test A preemergence; conditions: Setaria faberi, pre-emergence, 240 h, 0 to 100 scale where 0 is no effect and 100 is complete control, read-out: Foxtail, Giant plant response rating; for pest or weed control at 31 g/ha: 31 g ai/ha, Preemergence; for pest or weed control at 125 g/ha: 125 g ai/ha, preemergence, visual injury rating, approximately 10 d
In short: as §1

[3] = test system: ryegrass, Italian (Italian ryegrass, Lolium multiflorum); experiment: Test A preemergence; conditions: Lolium multiflorum, pre-emergence, 240 h, 0 to 100 scale where 0 is no effect and 100 is complete control, read-out: Ryegrass, Italian plant response rating; for pest or weed control at 31 g/ha: 31 g ai/ha, Preemergence; for pest or weed control at 125 g/ha: 125 g ai/ha, preemergence, visual injury rating, approximately 10 d
In short: as §1

[4] = test system: pigweed (Amaranthus retroflexus); experiment: Test A preemergence; conditions: Amaranthus retroflexus, pre-emergence, 240 h, 0 to 100 scale where 0 is no effect and 100 is complete control, read-out: Pigweed plant response rating; for pest or weed control at 31 g/ha: 31 g ai/ha, Preemergence; for pest or weed control at 125 g/ha: 125 g ai/ha, preemergence, visual injury rating, approximately 10 d
[5] = test system: ragweed (common ragweed, Ambrosia elatior); experiment: Test A preemergence; conditions: Ambrosia artemisiifolia, pre-emergence, 240 h, 0 to 100 scale where 0 is no effect and 100 is complete control, read-out: Ragweed plant response rating; for pest or weed control at 31 g/ha: 31 g ai/ha, Preemergence; for pest or weed control at 125 g/ha: 125 g ai/ha, preemergence, visual injury rating, approximately 10 d
In short: as §1

Kochia (Kochia scoparia) [6] = experiment: Test A preemergence; conditions: Bassia scoparia, pre-emergence, 240 h, 0 to 100 scale where 0 is no effect and 100 is complete control, read-out: Kochia plant response rating; for pest or weed control at 31 g/ha: 31 g ai/ha, Preemergence; for pest or weed control at 125 g/ha: 125 g ai/ha, preemergence, visual injury rating, approximately 10 d
In short: as §1

[7] = test system: barnyardgrass (Echinochloa crus-galli); experiment: Test B flooded paddy test; conditions: Echinochloa crus-galli, 250 g ai/ha, Flood; 0 to 100 scale where 0 is no effect and 100 is complete control; read-out: Barnyardgrass plant response rating
In short: (§2)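 Evaluation by eye, against controls, occurred 13–15 d post-treatment in a greenhouse, using a 0 (no effect) to 100 (complete control) scale. Application was into the paddy water, 3 cm deep over the soil, on 2-leaf plants.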

rice (Oryra sativa) = experiment: Test B flooded paddy test; conditions: Oryza sativa, 250 g ai/ha, Flood; 0 to 100 scale where 0 is no effect and 100 is complete control; read-out: Rice plant response rating
In short: as §2

[8] = test system: ducksalad (Heteranthera limosa); experiment: Test B flooded paddy test; conditions: Heteranthera limosa, 250 g ai/ha, Flood; 0 to 100 scale where 0 is no effect and 100 is complete control; read-out: Ducksalad plant response rating
In short: as §2

[9] = test system: sedge, umbrella (small-flower umbrella sedge, Cyperus difformis); experiment: Test B flooded paddy test; conditions: Cyperus difformis, 250 g ai/ha, Flood; 0 to 100 scale where 0 is no effect and 100 is complete control; read-out: Sedge, Umbrella plant response rating
In short: as §2

[10] = test system: barnyardgrass (Echinochloa crus-galli); experiment: Test A postemergence; conditions: Echinochloa crus-galli, post-emergence, 240 h, Postemergence; for pest or weed control at 125 g/ha: 125 g ai/ha, visual rating about 10 d after treatment, read-out: Barnyardgrass plant response rating (0 to 100 scale, 0 no effect, 100 complete control); for pest or weed control at 31 g/ha: 31 g ai/ha, 0 is no effect, 100 is complete control, read-out: Barnyardgrass plant response rating (0 to 100 scale)
In short: as §1

corn (Zea mays) = experiment: Test A postemergence; conditions: Zea mays, post-emergence, 240 h, Postemergence, read-out: Corn plant response rating (0 to 100 scale); for plant injury at 125 g/ha: 125 g ai/ha, visual rating about 10 d after treatment; for plant injury at 31 g/ha: 31 g ai/ha, 0 is no effect, 100 is complete control
In short: as §1

[11] = test system: giant foxtail (Setaria faberii); experiment: Test A postemergence; conditions: Setaria faberi, post-emergence, 240 h, Postemergence, read-out: Foxtail, Giant plant response rating (0 to 100 scale); for pest or weed control at 125 g/ha: 125 g ai/ha, visual rating about 10 d after treatment; for pest or weed control at 31 g/ha: 31 g ai/ha, 0 is no effect, 100 is complete control
In short: as §1

[12] = test system: blackgrass (Alopecurus myosuroides); experiment: Test A postemergence; conditions: Alopecurus myosuroides, post-emergence, 240 h, Postemergence, read-out: Blackgrass plant response rating (0 to 100 scale); for pest or weed control at 125 g/ha: 125 g ai/ha, visual rating about 10 d after treatment; for pest or weed control at 31 g/ha: 31 g ai/ha, 0 is no effect, 100 is complete control
In short: as §1

[13] = test system: ryegrass, Italian (Italian ryegrass, Lolium multiflorum); experiment: Test A postemergence; conditions: Lolium multiflorum, post-emergence, 240 h, Postemergence, read-out: Ryegrass, Italian plant response rating (0 to 100 scale); for pest or weed control at 125 g/ha: 125 g ai/ha, visual rating about 10 d after treatment; for pest or weed control at 31 g/ha: 31 g ai/ha, 0 is no effect, 100 is complete control
In short: as §1

[14] = test system: pigweed (Amaranthus retroflexus); experiment: Test A postemergence; conditions: Amaranthus retroflexus, post-emergence, 240 h, Postemergence, read-out: Pigweed plant response rating (0 to 100 scale); for pest or weed control at 125 g/ha: 125 g ai/ha, visual rating about 10 d after treatment; for pest or weed control at 31 g/ha: 31 g ai/ha, 0 is no effect, 100 is complete control
In short: as §1

[15] = test system: ragweed (common ragweed, Ambrosia elatior); experiment: Test A postemergence; conditions: Ambrosia artemisiifolia, post-emergence, 240 h, Postemergence, read-out: Ragweed plant response rating (0 to 100 scale); for pest or weed control at 125 g/ha: 125 g ai/ha, visual rating about 10 d after treatment; for pest or weed control at 31 g/ha: 31 g ai/ha, 0 is no effect, 100 is complete control
In short: as §1

[16] = test system: Galium (catchweed bedstraw, Galium aparine); experiment: Test A postemergence; conditions: Galium, post-emergence, 240 h, Postemergence, read-out: Galium plant response rating (0 to 100 scale); for pest or weed control at 125 g/ha: 125 g ai/ha, visual rating about 10 d after treatment; for pest or weed control at 31 g/ha: 31 g ai/ha, 0 is no effect, 100 is complete control
In short: as §1

[17] = test system: wheat (Triticum aestivum); experiment: Test A postemergence; conditions: Triticum aestivum, post-emergence, 240 h, Postemergence, read-out: Wheat plant response rating (0 to 100 scale); for plant injury at 125 g/ha: 125 g ai/ha, visual rating about 10 d after treatment; for plant injury at 31 g/ha: 31 g ai/ha, 0 is no effect, 100 is complete control
In short: as §1

Kochia (Kochia scoparia) [18] = experiment: Test A postemergence; conditions: Bassia scoparia, post-emergence, 240 h, Postemergence, read-out: Kochia plant response rating (0 to 100 scale); for pest or weed control at 125 g/ha: 125 g ai/ha, visual rating about 10 d after treatment; for pest or weed control at 31 g/ha: 31 g ai/ha, 0 is no effect, 100 is complete control
In short: as §1

| SMILES | pest or weed control at 31 g/ha [1] [%] | pest or weed control at 125 g/ha [1] [%] | pest or weed control at 31 g/ha [2] [%] | pest or weed control at 125 g/ha [2] [%] | pest or weed control at 31 g/ha [3] [%] | pest or weed control at 125 g/ha [3] [%] | pest or weed control at 31 g/ha [4] [%] | pest or weed control at 125 g/ha [4] [%] | pest or weed control at 31 g/ha [5] [%] | pest or weed control at 125 g/ha [5] [%] | pest or weed control at 31 g/ha (Kochia (Kochia scoparia) [6]) [%] | pest or weed control at 125 g/ha (Kochia (Kochia scoparia) [6]) [%] | pest or weed control at 250 g/ha [7] [%] | pest or weed control at 250 g/ha (rice (Oryra sativa)) [%] | pest or weed control at 250 g/ha [8] [%] | pest or weed control at 250 g/ha [9] [%] | pest or weed control at 125 g/ha [10] [%] | pest or weed control at 31 g/ha [10] [%] | plant injury at 125 g/ha (corn (Zea mays)) [%] | plant injury at 31 g/ha (corn (Zea mays)) [%] | also measured |
| --- | --- | --- | --- | --- | --- | --- | --- | --- | --- | --- | --- | --- | --- | --- | --- | --- | --- | --- | --- | --- | --- |
| O=C1NC[C@H](c2cccc(C(F)(F)F)c2)[C@H]1C(=O)Nc1ccccc1-n1cncn1 [Compound 1290] | 0 | 0 | 0 | 0 | 0 | 0 | 0 | 0 | 0 | 0 | 0 | 0 | 0 | 10 | 0 | 0 | 0 | 0 | 0 | 0 | pest or weed control at 125 g/ha [11]: 0%; pest or weed control at 31 g/ha [11]: 0%; pest or weed control at 125 g/ha [12]: 0%; pest or weed control at 31 g/ha [12]: 0%; pest or weed control at 125 g/ha [13]: 0%; pest or weed control at 31 g/ha [13]: 0%; pest or weed control at 125 g/ha [14]: 0%; pest or weed control at 31 g/ha [14]: 0%; pest or weed control at 125 g/ha [15]: 0%; pest or weed control at 31 g/ha [15]: 0%; pest or weed control at 125 g/ha [16]: 0%; pest or weed control at 31 g/ha [16]: 0%; plant injury at 125 g/ha [17]: 0%; plant injury at 31 g/ha [17]: 0%; pest or weed control at 125 g/ha (Kochia (Kochia scoparia) [18]): 0%; pest or weed control at 31 g/ha (Kochia (Kochia scoparia) [18]): 0% |
| O=C(Nc1ccc(F)c(F)c1F)[C@H]1C(=O)N(CC(F)F)C[C@@H]1c1cccc(C(F)(F)F)c1 [Compound 1297] | 20 | 20 | 0 | 80 | 0 | 0 | 0 | 0 | 0 | 0 | 0 | 0 | 0 | 30 | 0 | 0 | 20 | 0 | 0 | 0 | pest or weed control at 125 g/ha [11]: 20%; pest or weed control at 31 g/ha [11]: 0%; pest or weed control at 125 g/ha [12]: 0%; pest or weed control at 31 g/ha [12]: 0%; pest or weed control at 125 g/ha [13]: 0%; pest or weed control at 31 g/ha [13]: 0%; pest or weed control at 125 g/ha [14]: 0%; pest or weed control at 31 g/ha [14]: 0%; pest or weed control at 125 g/ha [15]: 0%; pest or weed control at 31 g/ha [15]: 0%; pest or weed control at 125 g/ha [16]: 0%; pest or weed control at 31 g/ha [16]: 0%; plant injury at 125 g/ha [17]: 0%; plant injury at 31 g/ha [17]: 0%; pest or weed control at 125 g/ha (Kochia (Kochia scoparia) [18]): 0%; pest or weed control at 31 g/ha (Kochia (Kochia scoparia) [18]): 0% |
